6 molecules from ChEMBL document CHEMBL1201862, “PubChem BioAssay data set” (2004) can be followed below.

In assay [1] the target is T1, Mitochondrial peptide methionine sulfoxide reductase (Bos taurus, UniProt P54149).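 Also: absorbance read-out, biochemical high-throughput dose-response screen for MsrA inhibitors, confirmatory; recombinant bovine MsrA coupled to E. coli TrxB with NADPH and selenocystamine; potency is for inhibitors of MsrA activity on DMSO substrate.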
T1 sequence (P54149 whole entry): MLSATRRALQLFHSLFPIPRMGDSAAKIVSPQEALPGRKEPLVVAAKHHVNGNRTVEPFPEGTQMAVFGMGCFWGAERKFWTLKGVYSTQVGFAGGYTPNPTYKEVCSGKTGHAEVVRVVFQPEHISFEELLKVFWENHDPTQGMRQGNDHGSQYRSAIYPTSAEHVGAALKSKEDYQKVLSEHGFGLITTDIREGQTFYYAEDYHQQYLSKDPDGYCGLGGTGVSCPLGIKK
It counts as functional.

In assay [2] the target is T2, Sentrin-specific protease 1 (Homo sapiens, UniProt Q9P0U3).
T2 sequence (Q9P0U3 whole entry): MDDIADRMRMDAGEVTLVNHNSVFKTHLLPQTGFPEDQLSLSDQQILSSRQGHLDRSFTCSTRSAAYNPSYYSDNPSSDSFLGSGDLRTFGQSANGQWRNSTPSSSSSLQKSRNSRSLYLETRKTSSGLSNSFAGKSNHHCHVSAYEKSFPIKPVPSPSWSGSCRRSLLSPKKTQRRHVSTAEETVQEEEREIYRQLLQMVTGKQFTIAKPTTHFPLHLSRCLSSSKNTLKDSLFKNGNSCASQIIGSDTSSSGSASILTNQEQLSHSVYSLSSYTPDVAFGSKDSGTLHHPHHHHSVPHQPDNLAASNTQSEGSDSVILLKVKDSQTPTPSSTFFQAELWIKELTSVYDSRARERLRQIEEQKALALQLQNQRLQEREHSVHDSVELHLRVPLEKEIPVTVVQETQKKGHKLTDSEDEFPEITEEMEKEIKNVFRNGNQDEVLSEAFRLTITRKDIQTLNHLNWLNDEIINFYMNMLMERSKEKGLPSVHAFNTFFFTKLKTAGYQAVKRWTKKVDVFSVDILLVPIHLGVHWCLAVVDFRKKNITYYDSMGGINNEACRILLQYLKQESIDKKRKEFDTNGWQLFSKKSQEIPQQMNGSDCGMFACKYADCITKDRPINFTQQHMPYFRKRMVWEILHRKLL
In words: Dose response confirmation of small molecule inhibitors of the catalytic domain of the SUMO protease, SENP1 in a FRET assay. It counts as functional. Particulars: read-out: IC50_Mean.

The target in assay [3] is T2, Sentrin-specific protease 1. In words: potency of human SENP1 inhibitors, dose response, biochemical, kinetic FRET (AID 651697). In kind it is functional. To be noted: read-out: IC50_Mean.
In assay [4] the target is T3, Probable nicotinate-nucleotide adenylyltransferase (Staphylococcus aureus (strain N315), UniProt P65502). In kind it is functional, Staphylococcus aureus subsp. aureus N315.
Assay [5] concerns the target T3, Probable nicotinate-nucleotide adenylyltransferase. In kind it is functional, Staphylococcus aureus subsp. aureus N315. Particulars: read-out: IC50_Mean.
Assay [6] concerns the target Aryl hydrocarbon receptor (Homo sapiens, UniProt P35869). Particulars: Potency.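 Also: confirmatory quantitative high-throughput screen measuring activation of the AhR signaling pathway.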
A further assay addresses T4, Coagulation factor XII (Homo sapiens, UniProt P00748).
T4 sequence (P00748 whole entry): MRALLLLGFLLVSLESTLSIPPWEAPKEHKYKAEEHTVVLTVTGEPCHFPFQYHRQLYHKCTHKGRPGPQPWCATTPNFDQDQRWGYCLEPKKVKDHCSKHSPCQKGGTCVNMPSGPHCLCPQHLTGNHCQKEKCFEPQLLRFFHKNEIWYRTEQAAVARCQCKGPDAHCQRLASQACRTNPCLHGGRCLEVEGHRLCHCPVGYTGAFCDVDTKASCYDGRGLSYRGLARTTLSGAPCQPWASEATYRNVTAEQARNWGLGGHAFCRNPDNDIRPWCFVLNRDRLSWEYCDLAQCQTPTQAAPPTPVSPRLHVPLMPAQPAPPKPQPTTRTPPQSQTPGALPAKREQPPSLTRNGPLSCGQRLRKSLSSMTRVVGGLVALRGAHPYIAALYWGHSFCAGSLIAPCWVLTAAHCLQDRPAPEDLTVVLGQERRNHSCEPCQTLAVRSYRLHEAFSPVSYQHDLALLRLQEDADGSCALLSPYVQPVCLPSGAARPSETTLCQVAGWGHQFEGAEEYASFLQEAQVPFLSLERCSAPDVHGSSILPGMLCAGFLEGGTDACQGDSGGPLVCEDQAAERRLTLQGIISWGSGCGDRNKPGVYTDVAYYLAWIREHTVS
It counts as functional.

In another assay the target is Protein Wnt-3a (Mus musculus, UniProt P27467). In words: Wnt3a-driven reporter signaling inhibition, dose response, selectivity assay for Gli-SUFU antagonist project, Wnt-LIGHT cells, luminescence (AID 651570).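 Also: Wnt-LIGHT reporter cells stimulated with conditioned medium from Wnt3a-producing cells.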 It counts as functional. To be noted: read-out: IC50_Mean.
Assay [7] has as its target T5, Endoribonuclease toxin MazF (Escherichia coli K-12, UniProt P0AE70).
T5 sequence (P0AE70 whole entry): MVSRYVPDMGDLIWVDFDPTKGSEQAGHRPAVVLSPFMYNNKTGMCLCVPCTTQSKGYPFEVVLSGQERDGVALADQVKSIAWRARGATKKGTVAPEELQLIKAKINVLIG
In words: MazF toxin RNase activators, dose response, biochemical, fluorescence, single-stranded RNA substrate, uHTS hits (AID 588481). In kind it is functional.

Assay [8] deals with BJ. In words: cytotoxicity toward BJ-TERT fibroblasts, dose response, cell-based, RAS-independent, luminescence (AID 1933). It counts as functional. To be noted: Homo sapiens.
The next assay deals with Beta Lactamase (Pseudomonas aeruginosa, UniProt Q932Y6).
Assay [9] can be described thus: cytotoxicity toward DRD oncogenic fibroblasts, dose response, cell-based, non-viral oncogenic, luminescence (AID 1934). In kind it is functional. Particulars: Homo sapiens.
The target of assay [10] is Beta-lactamase (Salmonella choleraesuis (strain SC-B67), UniProt Q5J463).
In assay [11] the test system is BJ. In words: cells. In kind it is functional, cell-based. Particulars: Homo sapiens.
Assay [12] has as its target Beta-lactamase (Pseudomonas aeruginosa, UniProt Q79MP6).
A further assay concerns the target Troponin, cardiac muscle (Homo sapiens, UniProt P19429+P45379+P63316). In words: Fluorescence-based biochemical high throughput dose response assay for activators of the calcium sensitivity of cardiac Regulated Thin Filaments (RTF). [Related pubchem assays (depositor defined):AID493008, AID493018, AID504382, AID504383]. It counts as protein-complex assay.
Assay [13] has as its system BJ. In words: cytotoxicity toward BJ-TERT-LT-ST fibroblasts, dose response, cell-based, RAS-independent, luminescence (AID 1935).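 Also: BJ fibroblasts immortalized with TERT plus LT and ST oncogenes.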 In kind it is functional. To be noted: Homo sapiens.
The target of assay [14] is T5, Endoribonuclease toxin MazF. In words: fluorescent RNA oligo signal without MazF, dose response, counter-screen for MazEF activator project, biochemical, fluorescence, single-stranded RNase substrate (AID 588502). In kind it is functional.
The target in assay [15] is Adenosylmethionine-8-amino-7-oxononanoate aminotransferase (Mycobacterium tuberculosis, UniProt P9WQ81). In words: Mycobacterium tuberculosis BioA enzyme inhibitor Measured in Biochemical System Using Plate Reader - 2163-02_Inhibitor_Dose_CherryPick_Activity. It counts as functional, Mycobacterium tuberculosis UT205.

Calls of active or inactive are those of the source. Where only a bound is given, the exact number is not on record here.

T3 sequence (P65502 whole entry): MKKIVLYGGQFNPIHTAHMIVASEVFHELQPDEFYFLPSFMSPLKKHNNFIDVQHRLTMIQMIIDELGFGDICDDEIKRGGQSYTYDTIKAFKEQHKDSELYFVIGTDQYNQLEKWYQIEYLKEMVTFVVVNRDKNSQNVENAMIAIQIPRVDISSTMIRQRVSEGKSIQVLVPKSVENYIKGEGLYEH
Beta-lactamase (Salmonella choleraesuis (strain SC-B67), UniProt Q5J463), sequence (Q5J463 whole entry): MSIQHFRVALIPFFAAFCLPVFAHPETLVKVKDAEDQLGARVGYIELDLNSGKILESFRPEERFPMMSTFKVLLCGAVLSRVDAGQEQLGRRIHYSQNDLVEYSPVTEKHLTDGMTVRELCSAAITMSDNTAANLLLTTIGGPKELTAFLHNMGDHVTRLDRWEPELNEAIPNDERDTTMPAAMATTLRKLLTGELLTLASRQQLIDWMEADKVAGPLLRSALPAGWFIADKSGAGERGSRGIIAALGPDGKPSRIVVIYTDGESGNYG
Beta Lactamase, sequence (Q932Y6 whole entry): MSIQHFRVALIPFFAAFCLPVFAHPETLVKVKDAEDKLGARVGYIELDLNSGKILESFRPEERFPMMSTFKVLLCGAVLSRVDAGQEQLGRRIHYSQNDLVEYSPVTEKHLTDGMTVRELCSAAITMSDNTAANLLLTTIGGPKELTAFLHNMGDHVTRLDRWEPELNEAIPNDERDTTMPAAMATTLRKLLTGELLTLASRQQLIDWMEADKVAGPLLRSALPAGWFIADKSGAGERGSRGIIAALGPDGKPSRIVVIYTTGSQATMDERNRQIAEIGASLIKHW
Beta-lactamase (Pseudomonas aeruginosa, UniProt Q79MP6), sequence (Q79MP6 whole entry): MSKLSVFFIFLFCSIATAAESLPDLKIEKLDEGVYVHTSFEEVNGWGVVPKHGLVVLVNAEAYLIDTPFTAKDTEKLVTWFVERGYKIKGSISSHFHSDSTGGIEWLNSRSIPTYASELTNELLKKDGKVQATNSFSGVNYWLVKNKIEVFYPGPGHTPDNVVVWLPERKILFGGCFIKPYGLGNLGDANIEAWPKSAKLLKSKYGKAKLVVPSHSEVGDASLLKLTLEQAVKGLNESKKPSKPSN
Aryl hydrocarbon receptor, sequence (P35869 whole entry): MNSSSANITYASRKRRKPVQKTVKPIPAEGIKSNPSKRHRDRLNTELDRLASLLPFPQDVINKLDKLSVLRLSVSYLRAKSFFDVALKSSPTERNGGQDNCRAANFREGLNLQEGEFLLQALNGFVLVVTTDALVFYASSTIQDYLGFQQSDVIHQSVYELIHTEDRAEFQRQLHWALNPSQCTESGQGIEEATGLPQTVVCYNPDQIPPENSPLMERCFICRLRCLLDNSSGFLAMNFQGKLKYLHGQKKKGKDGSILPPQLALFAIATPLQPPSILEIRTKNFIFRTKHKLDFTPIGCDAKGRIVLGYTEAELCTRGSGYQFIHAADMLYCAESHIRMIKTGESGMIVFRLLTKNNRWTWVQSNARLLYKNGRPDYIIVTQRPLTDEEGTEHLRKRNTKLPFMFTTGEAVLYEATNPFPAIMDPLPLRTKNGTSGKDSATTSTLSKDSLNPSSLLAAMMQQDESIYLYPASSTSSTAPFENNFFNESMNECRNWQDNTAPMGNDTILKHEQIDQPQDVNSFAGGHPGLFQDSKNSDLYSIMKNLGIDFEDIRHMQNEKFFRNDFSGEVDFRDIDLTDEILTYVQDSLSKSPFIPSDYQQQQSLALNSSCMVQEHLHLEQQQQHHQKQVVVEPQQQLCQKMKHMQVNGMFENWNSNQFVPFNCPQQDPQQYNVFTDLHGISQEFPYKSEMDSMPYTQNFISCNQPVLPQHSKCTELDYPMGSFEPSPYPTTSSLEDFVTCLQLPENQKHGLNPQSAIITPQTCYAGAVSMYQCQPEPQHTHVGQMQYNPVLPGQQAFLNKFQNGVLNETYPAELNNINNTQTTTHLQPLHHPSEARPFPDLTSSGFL
Adenosylmethionine-8-amino-7-oxononanoate aminotransferase, sequence (P9WQ81 whole entry): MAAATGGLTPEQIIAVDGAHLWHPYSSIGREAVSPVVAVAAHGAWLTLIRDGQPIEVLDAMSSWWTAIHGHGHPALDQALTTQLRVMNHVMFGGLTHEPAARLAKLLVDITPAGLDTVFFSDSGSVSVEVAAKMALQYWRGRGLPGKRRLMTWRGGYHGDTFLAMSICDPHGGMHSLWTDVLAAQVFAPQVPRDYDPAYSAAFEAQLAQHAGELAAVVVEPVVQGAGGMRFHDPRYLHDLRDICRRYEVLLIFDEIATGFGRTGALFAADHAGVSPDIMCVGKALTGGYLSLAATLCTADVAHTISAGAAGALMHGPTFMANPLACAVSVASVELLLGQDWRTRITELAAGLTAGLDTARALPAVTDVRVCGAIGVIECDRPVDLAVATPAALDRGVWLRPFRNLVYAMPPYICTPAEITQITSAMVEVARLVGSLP
Protein Wnt-3a, sequence (P27467 whole entry): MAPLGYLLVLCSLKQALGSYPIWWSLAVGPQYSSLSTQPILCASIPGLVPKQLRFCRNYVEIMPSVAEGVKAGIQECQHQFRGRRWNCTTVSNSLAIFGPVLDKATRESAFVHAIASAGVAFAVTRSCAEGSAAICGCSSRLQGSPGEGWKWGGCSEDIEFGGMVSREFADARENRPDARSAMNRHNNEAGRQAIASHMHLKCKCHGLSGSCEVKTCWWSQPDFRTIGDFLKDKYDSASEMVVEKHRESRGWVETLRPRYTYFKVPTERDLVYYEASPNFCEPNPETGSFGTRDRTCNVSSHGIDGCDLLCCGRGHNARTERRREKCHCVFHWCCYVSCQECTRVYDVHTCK

In the case of `COc1ccc(/C=N\NC(=O)/C(=C\Nc2nccc(C)n2)NC(=O)c2ccccc2)cc1`, the IC50 in assay [1] was 149 µM (inactive).
Turning to `CCOC(=O)C1=C(C)N=c2sc(=Cc3cc(Cl)c(OCC(=O)O)c(Cl)c3)c(=O)n2C1c1cccc(OC)c1` (centres undefined), the IC50 was 12.8 µM (active) in assay [2], 19.6 µM (active) in assay [3], 5.18 µM (active) in assay [4] and 19.2 µM (active) in assay [5].
With `N#CSCSc1nc2ccccc2s1`, the AC50 in assay [6] was 50.1 µM (inconclusive).
As to `COc1ccc(C2=[N+](C)CCn3cccc32)c(OC)c1`, the IC50 on Coagulation factor XII is > 50 µM (inactive); on Protein Wnt-3a it was 7 µM (active).
For the molecule `CN(/N=C/c1ccc(N(C)C)cc1)C1=NS(=O)(=O)c2ccccc21`, the EC50 in assay [7] is > 99 µM (inactive); in the assay with BJ [8], 27.9 µM (active); in assay [9] it was 84.8 µM (active); in the assay on BJ [11] it was 47 µM (active); on Troponin, cardiac muscle, 4.5 µM (active); in the assay on BJ [13], > 150 µM (not active). Besides, the EC50 in assay [14] was > 99 µM (inactive). Further, the IC50 was 15 µM (inactive) on Beta Lactamase, 23 µM (inactive) at Beta-lactamase [10] and 13.4 µM (inactive) on Beta-lactamase [12].
On to `COc1ccc(NC(=O)c2ccc(Cl)nc2)cc1S(=O)(=O)N1CCOCC1`, for which the AC50 in assay [15] was 2.27 µM (active).
